# Data taken from patent publication US20090257999A1, “Method of preventing contrast-induced nephropathy” (Inotek Pharmaceuticals Corporation, priority 2007, published 2009).
# How the values were obtained:
# Assay type in all cases: in vivo, rat
# [1] = system: Myeloperoxidase (MPO) activity in kidneys; experiment: Kidney myeloperoxidase (MPO) activity, Example 1; settings: at 96 hours
# Method: (§1) Experimental model for assessing the effects of Metalloporphyrin A on CIN: Diabetic (n=8) for group #'s 1-9 or wild-type rats (n=10) for group #'s 10 and 11 were treated with drug 60 min prior to contrast agent administration. At the “0” time point, Iomeprol was administered with ensuing drug intervention dosing every 12 hours for Metalloporphyrin A from 24-84 hours or every 24 hours for NAC from 24-72 hours. At the 96 hour time point, kidneys were harvested for histopathology, MPO and MDA measurements. From 0-96 hours, plasma samples from all animals per group were screened for urea, creatinine, fractional excretion of Na^+ and NGAL.
# Myeloperoxidase (MPO) activity in kidneys was used as an indicator of polymorphonuclear (PMN) cell infiltration activation using a method previously described (Hillegass et al, J. Pharmacol. Methods. 24(4):285-95,1990).
# At the end of the experiments, kidney tissue was weighed and homogenized in a solution containing 0.5% (wt/vol) hexadecyltrimethylammonium bromide dissolved in 10 mmol/L potassium phosphate buffer (pH 7.4) and centrifuged for 30 minutes at 20,000 g at 4° C. […] The rate of change in absorbance was measured spectrophotometrically at 650 nm. MPO activity was defined as the quantity of enzyme required to degrade 1 mmol of H2O2 at 37° C. and was expressed in U/g wet tissue.
# [2] = system: diabetic rats; experiment: CIN model, Example 2: NAC and Metalloporphyrin A in diabetic rats; settings: diabetic (STZ) rats + Iomeprol, NAC 3-100 mg/kg i.v., or NAC 10-100 mg/kg + Metalloporphyrin A 1 mg/kg i.v., at −30 min
# Method: Male Wistar rats (150-200 g; Harlan Nossanr) were housed in a controlled environment and provided with standard rodent chow and water. Diabetes was induced after 2 hours of fasting. The animals received a single 60 mg/kg intravenous (i.v.) injection of streptozotocin (Sigma, St. Louis, Mo.) in 10 mM sodium citrate buffer, pH 4.5 (see figure). Control non-diabetic animals were fasted and received citrate buffer alone. After 24 hours, animals with blood glucose levels greater than 250 mg/dl were considered diabetic. The diabetic state was confirmed by evaluating the blood glucose levels. Ten days following the induction of diabetes rats were anesthetized with 90 mg/kg ketamine i.m. and 10 mg/kg xylazine i.m. and were treated with the contrast agent iomeprol (10 mL/kg injected via the lateral tail vein) or with 0.9% normal saline. The contrast agent used was the low osmolar non-ionic monomer iomeprol (Iomeron, 400 mgI mL-1; Bracco SpA, Milan, Italy) with an osmolality of 726±34 mosmol/kg H2O.
# Blood samples were collected via the lateral tail vein into S1/3 tubes containing serum gel at 0 and 24 hours. The samples were centrifuged (6000 r.p.m. for 3 min) to separate plasma. All plasma samples were analyzed for biochemical parameters within 24 hours after collection. Plasma and urine concentrations of creatinine were measured as indicators of impaired glomerular function. Creatinine clearance was calculated using the following formula (=UV/P), where U refers to Creatinine concentration in urine, V to urine volume/min and P to serum creatinine.
# [3] = system: diabetic rats; experiment: CIN model, Example 5: INO-1001 alone and with NAC in diabetic rats; settings: diabetic rats + Iomeprol, NAC 30 mg/kg i.v., INO-1001 10 mg/kg ip, or both, at −30 min
# Method: Male Wistar rats (150-200 g; Harlan Nossanr) were housed in a controlled environment and provided with standard rodent chow and water. Diabetes was induced after 12 h of fasting. The animals received a single 60 mg/kg intravenous (i.v.) injection of streptozotocin (Sigma, St. Louis, Mo.) in 10 mM sodium citrate buffer, pH 4.5 (see figure). Control non-diabetic animals were fasted and received citrate buffer alone. After 24 hours, animals with blood glucose levels greater than 250 mg/dl were considered diabetic. The diabetic state was confirmed by evaluating the blood glucose levels. Ten days following the induction of diabetes rats were anesthetized with 90 mg/kg ketamine i.m. and 10 mg/kg xylazine i.m. and were treated with the contrast agent iomeprol (10 mL/kg injected via the lateral tail vein) or with 0.9% normal saline. The contrast agent used was the low osmolar non-ionic monomer iomeprol (Iomeron, 400 mgI mL-1; Bracco SpA, Milan, Italy) with an osmolality of 726±34 mosmol/kg H2O.
# GROUP 1: Diabetic rats only+Placebo (i.v.). GROUP 2: Diabetic rats+Iomeprol+Placebo (i.v.) given at −30 min. GROUP 3: Diabetic rats+Iomeprol+NAC (30 mg/kg, i.v.) given at −30 min. GROUP 4: Diabetic rats+Iomeprol+INO-1001 (10 mg/kg, ip) given at −30 min. GROUP 5: Diabetic rats+Iomeprol+NAC (30 mg/kg, i.v.)+INO-1001 (10 mg/kg, ip) given at −30 min.
# Blood samples were collected via the lateral tail vein into S1/3 tubes containing serum gel at 24 hours. The samples were centrifuged (6000 r.p.m. for 3 min) to separate plasma. All plasma samples were analyzed for biochemical parameters within 24 hours after collection. Plasma and urine concentrations of creatinine were measured as indicators of impaired glomerular function. Creatinine clearance was calculated using the following formula (=UV/P), where U refers to Creatinine concentration in urine, V to urine volume/min and P to serum creatinine. Plasma and urine concentrations of NGAL (neutrophil gelatinase associated lipocalin) levels and urine αGST (alpha glutathione S-transferase) and NGAL levels were evaluated.
# Protein concentration in urine was determined by Bio-Rad DC Protein Assay (BioRad, Richmond Calif.). The Bio-Rad DC protein assay is a colorimetric assay for protein concentration. The reaction is similar to the well-documented Lowry assay (Lowry et al., Protein measurement with the Folin phenol reagent, J Biol Chem 193, 265-275 (1951). The Bio-Rad DC protein assay requires only a single 15-minute incubation, and absorbance is stable for a least 2 hours. The amount of protein is expressed in mg/ml.
# [4] = system: Neutrophil gelatinase-associated lipocalin (NGAL); experiment: Plasma NGAL by ELISA, Example 1; settings: diabetic rats + i.v. Iomeprol; Metalloporphyrin A 1 mg/kg or NAC 10 mg/kg; versus drug placebo; readings 0-96 hours
# Method: as §1
# Neutrophil gelatinase-associated lipocalin (NGAL) has recently been proposed as a real-time indicator of active kidney damage by Mori, K., Nakao, K., Kidney International (2007) 71, 967-970. The plasma from 5 different diabetic animals per experimental group were taken for measurement of NGAL by ELISA as outlined below:
# 1) For diabetic rats without contrast agent, non-diluted plasma was used. For diabetic rats with contrast agent, plasma samples were diluted 1:400 with saline prior to use.
# 100 microliter diluted/non-diluted plasma samples or recombinant NGAL protein (25-1000 ng/ml) were added to pre-coated ELISA plates containing a monoclonal antibody raised against NGAL. […]
# 5) Plates were read at an absorbance of 450 nm.
smiles,measurement,setting,value
"CC(=O)N[C@@H](CS)C(=O)O [NAC, N-acetylcysteine]",kidney MPO activity,"[1]; diabetic rats + i.v. Iomeprol, Metalloporphyrin A 30-1000 μg/kg or NAC 10 mg/kg i.p.",significant reductions
same,kidney MPO activity,"[1]; diabetic rats + i.v. saline (no contrast agent), Metalloporphyrin A 1000 μg/kg or NAC 10 mg/kg i.p.",significantly reduced the increase
same,plasma creatinine,[2]; 24 h,significant reductions
same,total protein concentration in the urine,[2]; 24 hours,significant reductions
same,urine αGST concentration,[2]; 24 hours,significant reduction
same,plasma creatinine,[3]; 24 h,significant reductions
same,plasma NGAL concentration,[3]; 24 hours,significant reductions
same,total protein concentration in the urine,[3]; 24 hours,significant reductions
same,urine NGAL concentration,[3]; 24 hours,significant reductions
same,urine αGST,[3]; 24 hours,significant reductions
same,plasma NGAL levels,[4],significantly lower
